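Briefly, cells in 96-well plates were exposed to five compound concentrations for 48 h, and endpoints were estimated by linear interpolation. The concentration for 50% growth inhibition is given as GI50. TGI: concentration producing complete growth inhibition.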
Legend:
Assay in all cases: growth of human tumour cells (NCI), 48 h
T-47D breast = tested on: T-47D breast
BT-549 breast = tested on: BT-549 breast
UACC-257 melanoma = tested on: UACC-257 melanoma
HCT-116 colon = tested on: HCT-116 colon
OVCAR-4 ovarian = tested on: OVCAR-4 ovarian
SR leukemia = tested on: SR leukemia
U251 CNS = tested on: U251 CNS
EKVX NSCLC = tested on: EKVX NSCLC
SNB-19 CNS = tested on: SNB-19 CNS
SK-MEL-5 melanoma = tested on: SK-MEL-5 melanoma
SK-MEL-28 melanoma = tested on: SK-MEL-28 melanoma
HL-60(TB) leukemia = tested on: HL-60(TB) leukemia
MCF7 breast = tested on: MCF7 breast
ACHN renal = tested on: ACHN renal
DU-145 prostate = tested on: DU-145 prostate
PC-3 prostate = tested on: PC-3 prostate
A498 renal = tested on: A498 renal
A549 NSCLC = tested on: A549 NSCLC
SK-OV-3 ovarian = tested on: SK-OV-3 ovarian
MOLT-4 leukemia = tested on: MOLT-4 leukemia
NCI-H522 lung = tested on: NCI-H522 lung
IGROV1 ovarian = tested on: IGROV1 ovarian
NCI-H226 lung = tested on: NCI-H226 lung
OVCAR-5 ovarian = tested on: OVCAR-5 ovarian
SF-268 CNS = tested on: SF-268 CNS
SK-MEL-2 melanoma = tested on: SK-MEL-2 melanoma
SW-620 colon = tested on: SW-620 colon
SNB-75 CNS = tested on: SNB-75 CNS
OVCAR-8 ovarian = tested on: OVCAR-8 ovarian
MALME-3M melanoma = tested on: MALME-3M melanoma
HCT-15 colon = tested on: HCT-15 colon
TK-10 renal = tested on: TK-10 renal
M14 melanoma = tested on: M14 melanoma
RPMI-8226 leukemia = tested on: RPMI-8226 leukemia
SF-295 CNS = tested on: SF-295 CNS
SN12C renal = tested on: SN12C renal
786-0 renal = tested on: 786-0 renal
MDA-MB-435 = tested on: MDA-MB-435
OVCAR-3 ovarian = tested on: OVCAR-3 ovarian
NCI/ADR-RES ovarian = tested on: NCI/ADR-RES ovarian
SF-539 CNS = tested on: SF-539 CNS
HT29 colon = tested on: HT29 colon
HCC-2998 colon = tested on: HCC-2998 colon
COLO 205 colon = tested on: COLO 205 colon
HOP-62 NSCLC = tested on: HOP-62 NSCLC
HS 578T breast = tested on: HS 578T breast
CCRF-CEM leukemia = tested on: CCRF-CEM leukemia
RXF 393 renal = tested on: RXF 393 renal
KM12 colon = tested on: KM12 colon
UACC-62 melanoma = tested on: UACC-62 melanoma
LOX IMVI melanoma = tested on: LOX IMVI melanoma
UO-31 renal = tested on: UO-31 renal
CAKI-1 renal = tested on: CAKI-1 renal
NCI-H23 lung = tested on: NCI-H23 lung
NCI-H460 lung = tested on: NCI-H460 lung
MDA-MB-231 breast = tested on: MDA-MB-231 breast
K-562 leukemia = tested on: K-562 leukemia

For `O=C(/C=C/c1cc([N+](=O)[O-])ccc1Cl)c1ccccc1`, the GI50 (T-47D breast) was 27.9 µM, the TGI (T-47D breast) was > 100 µM and the GI50 (BT-549 breast) was 14.5 µM. For the same compound, the TGI (BT-549 breast) was 27.8 µM, the GI50 (UACC-257 melanoma) was 16.2 µM and the TGI (UACC-257 melanoma) was 33.6 µM. For the same compound, the GI50 (HCT-116 colon) was 1.59 µM, the TGI (HCT-116 colon) was 2.93 µM and the GI50 (OVCAR-4 ovarian) was 33.9 µM. The TGI (OVCAR-4 ovarian) was > 100 µM, the GI50 (SR leukemia) was 3.54 µM and the TGI (SR leukemia) was > 100 µM. For the same compound, the GI50 (U251 CNS) was 2.56 µM, the TGI (U251 CNS) was 8.04 µM and the GI50 (EKVX NSCLC) was 13 µM. For the same compound, the TGI (EKVX NSCLC) was 43.2 µM, the GI50 (SNB-19 CNS) was 13.3 µM and the TGI (SNB-19 CNS) was 28.3 µM. It also gave a GI50 (SK-MEL-5 melanoma) of 15.4 µM, a TGI (SK-MEL-5 melanoma) of 29.3 µM and a GI50 (SK-MEL-28 melanoma) of 14.3 µM. For the same compound, the TGI (SK-MEL-28 melanoma) was 29 µM, the GI50 (HL-60(TB) leukemia) was 32 µM and the TGI (HL-60(TB) leukemia) was 96.4 µM. For the same compound, the GI50 (MCF7 breast) was 2.76 µM, the TGI (MCF7 breast) was 17.4 µM and the GI50 (ACHN renal) was 16.4 µM. The TGI (ACHN renal) was 31.9 µM, the GI50 (DU-145 prostate) was 14.7 µM and the TGI (DU-145 prostate) was 31.2 µM. It also gave a GI50 (PC-3 prostate) of 24.5 µM, a TGI (PC-3 prostate) of 82.9 µM and a GI50 (A498 renal) of 12.8 µM. For the same compound, the TGI (A498 renal) was 26.9 µM, the GI50 (A549 NSCLC) was 22 µM and the TGI (A549 NSCLC) was 92.9 µM. For the same compound, the GI50 (SK-OV-3 ovarian) was 39 µM, the TGI (SK-OV-3 ovarian) was > 100 µM and the GI50 (MOLT-4 leukemia) was 21.1 µM. The TGI (MOLT-4 leukemia) was > 100 µM, the GI50 (NCI-H522 lung) was 15 µM and the TGI (NCI-H522 lung) was 36.8 µM. It also gave a GI50 (IGROV1 ovarian) of 4.6 µM, a TGI (IGROV1 ovarian) of 31.7 µM and a GI50 (NCI-H226 lung) of 15.4 µM. For the same compound, the TGI (NCI-H226 lung) was 59.3 µM, the GI50 (OVCAR-5 ovarian) was 23.5 µM and the TGI (OVCAR-5 ovarian) was 74.2 µM. For the same compound, the GI50 (SF-268 CNS) was 16.9 µM, the TGI (SF-268 CNS) was 43.6 µM and the GI50 (SK-MEL-2 melanoma) was 24.6 µM. It also gave a TGI (SK-MEL-2 melanoma) of 72.3 µM, a GI50 (SW-620 colon) of 2.05 µM and a TGI (SW-620 colon) of 3.9 µM. For the same compound, the GI50 (SNB-75 CNS) was 21.7 µM, the TGI (SNB-75 CNS) was 99.6 µM and the GI50 (OVCAR-8 ovarian) was 12.2 µM. The TGI (OVCAR-8 ovarian) was 33.5 µM, the GI50 (MALME-3M melanoma) was 19.4 µM and the TGI (MALME-3M melanoma) was 44.7 µM. For the same compound, the GI50 (HCT-15 colon) was 8 µM, the TGI (HCT-15 colon) was 88.2 µM and the GI50 (TK-10 renal) was 38.2 µM. For the same compound, the TGI (TK-10 renal) was > 100 µM, the GI50 (M14 melanoma) was 10.2 µM and the TGI (M14 melanoma) was 22.5 µM. The GI50 (RPMI-8226 leukemia) was 3.68 µM, the TGI (RPMI-8226 leukemia) was 14.6 µM and the GI50 (SF-295 CNS) was 15.6 µM. The TGI (SF-295 CNS) was 49.6 µM, the GI50 (SN12C renal) was 19.6 µM and the TGI (SN12C renal) was 54 µM. It also gave a GI50 (786-0 renal) of 15.2 µM, a TGI (786-0 renal) of 32 µM and a GI50 (MDA-MB-435) of 14.2 µM. It also gave a TGI (MDA-MB-435) of 35.5 µM, a GI50 (OVCAR-3 ovarian) of 5.08 µM and a TGI (OVCAR-3 ovarian) of 16.1 µM. For the same compound, the GI50 (NCI/ADR-RES ovarian) was 24.4 µM, the TGI (NCI/ADR-RES ovarian) was 91.7 µM and the GI50 (SF-539 CNS) was 16.6 µM. It also gave a TGI (SF-539 CNS) of 32.7 µM, a GI50 (HT29 colon) of 3.36 µM and a TGI (HT29 colon) of 19.4 µM. It also gave a GI50 (HCC-2998 colon) of 3.3 µM, a TGI (HCC-2998 colon) of 9.27 µM and a GI50 (COLO 205 colon) of 23 µM. For the same compound, the TGI (COLO 205 colon) was 48.2 µM, the GI50 (HOP-62 NSCLC) was 25 µM and the TGI (HOP-62 NSCLC) was 63.5 µM. For the same compound, the GI50 (HS 578T breast) was 21.2 µM, the TGI (HS 578T breast) was 61.7 µM and the GI50 (CCRF-CEM leukemia) was 26.9 µM. For the same compound, the TGI (CCRF-CEM leukemia) was > 100 µM, the GI50 (RXF 393 renal) was 14.7 µM and the TGI (RXF 393 renal) was 28.1 µM. It also gave a GI50 (KM12 colon) of 1.8 µM, a TGI (KM12 colon) of 3.59 µM and a GI50 (UACC-62 melanoma) of 13.8 µM. For the same compound, the TGI (UACC-62 melanoma) was 32.3 µM, the GI50 (LOX IMVI melanoma) was 2.6 µM and the TGI (LOX IMVI melanoma) was 6.79 µM. It also gave a GI50 (UO-31 renal) of 11.7 µM, a TGI (UO-31 renal) of 26.4 µM and a GI50 (CAKI-1 renal) of 5.32 µM. For the same compound, the TGI (CAKI-1 renal) was 31.3 µM, the GI50 (NCI-H23 lung) was 15.6 µM and the TGI (NCI-H23 lung) was 36.2 µM. The GI50 (NCI-H460 lung) was 14.1 µM, the TGI (NCI-H460 lung) was 33.7 µM and the GI50 (MDA-MB-231 breast) was 19.3 µM. For the same compound, the TGI (MDA-MB-231 breast) was 70.7 µM, the GI50 (K-562 leukemia) was 6.66 µM and the TGI (K-562 leukemia) was > 100 µM.
